Results taken from patent US4975538A, “Antibiotic sulfonylaminocarbonyl activated beta-lactams” (The Upjohn Company, priority 1989, dated 1990).
Values after ≈ are worked out from the molar mass of the structure shown.

How the values were obtained:
Assay in all cases: Minimum Inhibitory Concentration (MIC), agar dilution in Mueller Hinton Agar
Type in all cases: cell-based
[1] = tested on: Citrobacter Freundli; details: 20 h, culture number 3507
Procedure: (§1) The compounds of this invention and their respective pharmaceutically acceptable salts have antibiotic activity against a variety of gram-negative bacteria including Escherichia coli, Klebsiella pneumoniae, and Pseudomonas aeruginosa. The compounds are useful for treating bacterial infections in animals, including and most preferably humans. Compounds of the invention are tested for in vitro antimicrobial activity using standard testing procedures such as the determination of minimum inhibitory concentration (MIC) by methods described in "Methods for Dilution Antimicrobial Susceptibility Tests for Bacteria That Grow Aerobically" (M7-A) Published December 1985 by the National Committee for Clinical Laboratory Standards, 771 East Lancaster Avenue, Villanova, Pa. 19084. Briefly, MIC values are determined in unsupplemented Mueller Hinton Agar (MHA). The compounds tested are diluted serially into molten MHA at 47° C. The agar is poured into petri dishes and allowed to harden. The various bacteria used for testing are grown overnight on MHA at 35° C. and transferred to Tryptiease Soy Broth (TSB) until a turbidity of 0.5 McFarland standard is obtained. The bacteria are diluted one to twenty in TSB and inoculated on the plates (1 μl using a Steers replicator).

[2] = tested on: Enterobacter Cloacae; details: 20 h
Procedure: as §1

[3] = tested on: Klebsiella Oxytoca; details: 20 h
Procedure: as §1

[4] = tested on: Proteus Vulgaris; details: 20 h, culture number 9679
Procedure: as §1

[5] = tested on: Serratia Marcescens; details: 20 h
Procedure: as §1

[6] = tested on: Klebsiella Pneumoniae; details: 20 h, culture number 58
Procedure: as §1

[7] = tested on: Staphylococcus Aureus; details: 20 h
Procedure: as §1

[8] = tested on: Streptococcus Pneumoniae; details: 20 h, culture number 41
Procedure: as §1

[9] = tested on: Pseudomonas Aeruginosa; details: 20 h
Procedure: as §1

[10] = tested on: Streptococcus Pyogenes; details: 20 h, culture number 152
Procedure: as §1

[11] = tested on: Escherichia Coli; details: 20 h
Procedure: as §1

[12] = tested on: Streptococcus Faecalis; details: Enterococcus faecalis, 20 h; culture number 694
Procedure: as §1

SMILES | MIC [1] [µg/mL] | MIC ([2]; culture number 9381) [µg/mL] | MIC ([2]; culture number 9382) [µg/mL] | MIC ([3]; culture number 9383) [µg/mL] | MIC ([3]; culture number 9384) [µg/mL] | MIC [4] [µg/mL] | MIC ([5]; culture number 6888) [µg/mL] | MIC [6] [µg/mL] | MIC ([7]; culture number 3665) [µg/mL] | MIC ([7]; culture number 6685) [µg/mL] | MIC ([7]; culture number 9218) [µg/mL] | MIC [8] [µg/mL] | MIC ([9]; culture number 231) [µg/mL] | MIC ([9]; culture number 9191) [µg/mL] | MIC [10] [µg/mL] | MIC ([11]; culture number 9379) [µg/mL] | MIC ([11]; culture number 9380) [µg/mL] | MIC ([11]; culture number 9451) [µg/mL] | MIC [12] [µg/mL] | MIC ([5]; culture number 9888) [µg/mL]
Nc1nc(/C(=N/OCC(=O)O)C(=O)N[C@H]2CN(C(=O)NS(=O)(=O)N3CCN(C(=O)c4cc(=O)c(O)c[nH]4)CC3)C2=O)cs1 [Compound E19, Acetic acid, 2-[[[1-(2-amino-4-thiazolyl)-2-[[1-[[[[4-[(1,4-dihydro-5-hydroxy-4-oxo-2-pyridinyl)carbonyl]-1-piperazinyl]sulfonyl]amino]carbonyl]-2-oxo-3-azetidinyl]amino]-2-oxoethylidene]amino]oxy]-, [S-(Z)]-] | 2 (≈ 3.12 µM) | 128 (≈ 200 µM) | 16 (≈ 24.9 µM) | 64 (≈ 99.8 µM) | 0.5 (≈ 0.779 µM) | 4 (≈ 6.23 µM) | 1 (≈ 1.56 µM) | 8 (≈ 12.5 µM) | > 128 | > 128 | > 128 | > 128 | 8 (≈ 12.5 µM) | 8 (≈ 12.5 µM) | 64 (≈ 99.8 µM) | 0.25 (≈ 0.39 µM) | 0.06 (≈ 0.0935 µM) | 0.125 (≈ 0.195 µM) | > 128 | –
CC(C)(O/N=C(\C(=O)N[C@H]1CN(C(=O)NS(=O)(=O)N2CCN(NC(=O)c3cc(=O)c(O)cn3C3CC3)C2=O)C1=O)c1csc(N)n1)C(=O)O [Compound E42, Propanoic acid, 2-[[[1-(2-amino-4-thiazolyl)-2-[[1-[[[[3-[[(1-cyclopropyl-1,4-dihydro-5-hydroxy-4-oxo-2-pyridinyl)carbonyl]amino]-2-oxo-1-imidazolidinyl]sulfonyl]amino]carbonyl]-2-oxo-3-azetidinyl]amino]-2-oxoethylidene]amino]oxy]-2-methyl-, [S-(Z)]-] | 0.5 (≈ 0.69 µM) | 64 (≈ 88.3 µM) | 4 (≈ 5.52 µM) | 1 (≈ 1.38 µM) | 0.5 (≈ 0.69 µM) | 2 (≈ 2.76 µM) | 0.5 (≈ 0.69 µM) | 2 (≈ 2.76 µM) | > 64 | > 64 | > 64 | > 64 | 16 (≈ 22.1 µM) | 16 (≈ 22.1 µM) | 64 (≈ 88.3 µM) | 0.06 (≈ 0.0828 µM) | 0.03 (≈ 0.0414 µM) | 0.125 (≈ 0.172 µM) | > 64 | –
CC(C)(O/N=C(\C(=O)N[C@H]1CN(C(=O)NS(=O)(=O)n2nc(-c3cc(=O)c(O)c[nH]3)[nH]c2=O)C1=O)c1csc(N)n1)C(=O)O [E23 (a), propanoic acid, 2-[[[1-(2-amino-4-thiazolyl)-2-[[1-[[[[3-(1,4-dihydro-5-hydroxy-4-oxo-2-pyridinyl)-2,5-dihydro-5-oxo-1H-1,2,4-triazol-1-yl]sulfonyl]amino]carbonyl]-2-oxo-3-azetidinyl]amino]-2-oxoethylidene]amino]oxy]-2-methyl-, [S-(Z)]-] | 0.03 (≈ 0.0468 µM) | 4 (≈ 6.24 µM) | 0.5 (≈ 0.781 µM) | 0.03 (≈ 0.0468 µM) | 0.03 (≈ 0.0468 µM) | 0.03 (≈ 0.0468 µM) | 0.015 (≈ 0.0234 µM) | 0.25 (≈ 0.39 µM) | > 64 | > 64 | > 64 | > 64 | 0.5 (≈ 0.781 µM) | 0.5 (≈ 0.781 µM) | 16 (≈ 25 µM) | < 0.008 | < 0.008 | < 0.008 | > 64 | –
Cn1c(-c2cc(=O)c(O)c[nH]2)nn(S(=O)(=O)NC(=O)N2C[C@H](NC(=O)/C(=N\OC(C)(C)C(=O)O)c3csc(N)n3)C2=O)c1=O [E23 (b)] | 0.03 (≈ 0.0458 µM) | 4 (≈ 6.11 µM) | 0.5 (≈ 0.764 µM) | 0.03 (≈ 0.0458 µM) | 0.03 (≈ 0.0458 µM) | 0.03 (≈ 0.0458 µM) | 0.015 (≈ 0.0229 µM) | 0.25 (≈ 0.382 µM) | > 64 | > 64 | > 64 | > 64 | 0.125 (≈ 0.191 µM) | 0.25 (≈ 0.382 µM) | 16 (≈ 24.4 µM) | < 0.008 | < 0.008 | < 0.008 | > 64 | –
Nc1nc(C(=NOCC(=O)O)C(=O)NC2CN(C(=O)NS(=O)(=O)N3CC(CNC(=O)c4cc(=O)c(O)c[nH]4)OC3=O)C2=O)cs1 (stereo not drawn) [E27 (a), [[[1-(2-amino-4-thiazolyl)-2-[[1-[[[[4-[[(1,4-dihydro-5-hydroxy-4-oxo-2-pyridinyl)carbonyl]amino]-[2-oxo-5-oxazolydinyl]methyl]sulfonyl]amino]carbonyl]-2-oxo-3-azetidinyl]amino]-2-oxoethylidene]amino]oxy] acetic acid] | 0.25 (≈ 0.372 µM) | 128 (≈ 191 µM) | 2 (≈ 2.98 µM) | 4 (≈ 5.96 µM) | 0.25 (≈ 0.372 µM) | 0.5 (≈ 0.745 µM) | – | 0.5 (≈ 0.745 µM) | – | – | – | – | 4 (≈ 5.96 µM) | 64 (≈ 95.3 µM) | 16 (≈ 23.8 µM) | < 0.06 | < 0.06 | < 0.06 | – | 0.5 (≈ 0.745 µM)
Cn1cc(O)c(=O)cc1C(=O)NN1CCN(S(=O)(=O)NC(=O)N2C[C@H](NC(=O)/C(=N\OC(C)(C)C(=O)O)c3csc(N)n3)C2=O)C1=O [E42 (a)] | 0.5 (≈ 0.716 µM) | 64 (≈ 91.6 µM) | 4 (≈ 5.73 µM) | 1 (≈ 1.43 µM) | 0.5 (≈ 0.716 µM) | 0.5 (≈ 0.716 µM) | 0.25 (≈ 0.358 µM) | 2 (≈ 2.86 µM) | > 128 | > 128 | > 128 | > 128 | 2 (≈ 2.86 µM) | 2 (≈ 2.86 µM) | 128 (≈ 183 µM) | 0.06 (≈ 0.0859 µM) | < 0.015 | 0.06 (≈ 0.0859 µM) | > 128 | –
CCCCn1cc(O)c(=O)cc1C(=O)NN1CCN(S(=O)(=O)NC(=O)N2C[C@H](NC(=O)/C(=N\OC(C)(C)C(=O)O)c3csc(N)n3)C2=O)C1=O [E42 (b), Propanoic acid, 2-[[[1-(2-amino-4-thiazolyl)-2-[[1-[[[[3-[[(1-butyl-1,4-dihydro-5-hydroxy-4-oxo-2-pyridinyl)carbonyl]amino]-2-oxo-1-imidazolidinyl]sulfonyl]amino]carbonyl]-2-oxo-3-azetidinyl]amino]-2-oxoethylidene]amino]oxy]-2-methyl-, [S-(Z)]-] | 2 (≈ 2.7 µM) | > 64 | 1 (≈ 1.35 µM) | 4 (≈ 5.4 µM) | 0.25 (≈ 0.338 µM) | 0.25 (≈ 0.338 µM) | 1 (≈ 1.35 µM) | 0.5 (≈ 0.675 µM) | > 64 | > 64 | > 64 | > 64 | > 64 | 64 (≈ 86.4 µM) | 16 (≈ 21.6 µM) | 0.5 (≈ 0.675 µM) | 0.25 (≈ 0.338 µM) | 0.5 (≈ 0.675 µM) | > 64 | –

More lines, now with the values ahead:

MIC [1] [µg/mL] | MIC ([2]; culture number 9381) [µg/mL] | MIC ([2]; culture number 9382) [µg/mL] | MIC ([3]; culture number 9383) [µg/mL] | MIC ([3]; culture number 9384) [µg/mL] | MIC [4] [µg/mL] | MIC ([5]; culture number 6888) [µg/mL] | MIC [6] [µg/mL] | MIC ([7]; culture number 3665) [µg/mL] | MIC ([7]; culture number 6685) [µg/mL] | MIC ([7]; culture number 9218) [µg/mL] | MIC [8] [µg/mL] | MIC ([9]; culture number 231) [µg/mL] | MIC ([9]; culture number 9191) [µg/mL] | MIC [10] [µg/mL] | MIC ([11]; culture number 9379) [µg/mL] | MIC ([11]; culture number 9380) [µg/mL] | MIC ([11]; culture number 9451) [µg/mL] | MIC [12] [µg/mL] | MIC ([5]; culture number 9888) [µg/mL] | SMILES
0.25 (≈ 0.366 µM) | 64 (≈ 93.6 µM) | 1 (≈ 1.46 µM) | 0.5 (≈ 0.731 µM) | 0.125 (≈ 0.183 µM) | 0.25 (≈ 0.366 µM) | 0.125 (≈ 0.183 µM) | 1 (≈ 1.46 µM) | > 64 | > 64 | > 64 | > 64 | 0.5 (≈ 0.731 µM) | 0.5 (≈ 0.731 µM) | 16 (≈ 23.4 µM) | 0.015 (≈ 0.0219 µM) | < 0.008 | 0.015 (≈ 0.0219 µM) | > 64 | – | CC(C)(O/N=C(\C(=O)N[C@H]1CN(C(=O)NS(=O)(=O)N2CCN(C(=O)c3cc(=O)c(O)c[nH]3)CC2=O)C1=O)c1csc(N)n1)C(=O)O [Compound E17]
0.06 (≈ 0.0876 µM) | 16 (≈ 23.4 µM) | 1 (≈ 1.46 µM) | 0.125 (≈ 0.183 µM) | 0.03 (≈ 0.0438 µM) | 0.06 (≈ 0.0876 µM) | 0.06 (≈ 0.0876 µM) | 0.5 (≈ 0.73 µM) | > 64 | > 64 | > 64 | > 64 | 0.25 (≈ 0.365 µM) | 0.125 (≈ 0.183 µM) | 16 (≈ 23.4 µM) | < 0.008 | < 0.008 | < 0.008 | > 64 | – | CC(C)(O/N=C(\C(=O)N[C@H]1CN(C(=O)NS(=O)(=O)N2CCN(C(=O)c3cc(=O)c(O)c[nH]3)NC2=O)C1=O)c1csc(N)n1)C(=O)O [Compound E18, Propanoic acid, 2-[[[1-(2-amino-4-thiazolyl)-2-[[1-[[[[1-[(1,4-dihydro-5-hydroxy-4-oxo-2-pyridinyl)carbonyl]tetrahydro-3-oxo-1,2,4-triazin-4(1H)-yl]sulfonyl]amino]carbonyl]-2-oxo-3-azetidinyl]amino]-2-oxoethylidene]amino]oxy]-2-methyl-[S-(Z)]-]
0.5 (≈ 0.715 µM) | 128 (≈ 183 µM) | 8 (≈ 11.4 µM) | 4 (≈ 5.72 µM) | 0.25 (≈ 0.357 µM) | 0.5 (≈ 0.715 µM) | – | 2 (≈ 2.86 µM) | – | – | – | – | 4 (≈ 5.72 µM) | 8 (≈ 11.4 µM) | 64 (≈ 91.5 µM) | 0.125 (≈ 0.179 µM) | 0.03 (≈ 0.0429 µM) | 0.06 (≈ 0.0858 µM) | – | 0.5 (≈ 0.715 µM) | CC(C)(ON=C(C(=O)NC1CN(C(=O)NS(=O)(=O)N2CC(CNC(=O)c3cc(=O)c(O)c[nH]3)OC2=O)C1=O)c1csc(N)n1)C(=O)O (stereo not drawn) [E27 (b)]
